Measured values: PubChem BioAssay (NCI)
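All cell lines were grown in 96-well plates and treated with compound for 48 hours. Abbreviation: GI50, concentration required for 50% inhibition of growth. TGI marks complete inhibition of growth.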

What was measured:
Test in all cases: NCI-60 cell line screen, 48 h
U251 CNS = tested on: U251 CNS
DMS 273 small cell lung = tested on: DMS 273 small cell lung
KM20L2 colon = tested on: KM20L2 colon
RPMI-8226 leukemia = tested on: RPMI-8226 leukemia
DLD-1 colon = tested on: DLD-1 colon
SW-620 colon = tested on: SW-620 colon
HOP-18 NSCLC = tested on: HOP-18 NSCLC
T-47D breast = tested on: T-47D breast
MCF7 breast = tested on: MCF7 breast
MDA-MB-231 breast = tested on: MDA-MB-231 breast

| SMILES | TGI (U251 CNS) | TGI (DMS 273 small cell lung) | TGI (KM20L2 colon) | TGI (RPMI-8226 leukemia) | TGI (DLD-1 colon) | TGI (SW-620 colon) | TGI (HOP-18 NSCLC) | GI50 (U251 CNS) | GI50 (T-47D breast) | TGI (T-47D breast) | GI50 (MCF7 breast) | TGI (MCF7 breast) | GI50 (RPMI-8226 leukemia) | GI50 (SW-620 colon) | GI50 (MDA-MB-231 breast) | TGI (MDA-MB-231 breast) | GI50 (DMS 273 small cell lung) | GI50 (DLD-1 colon) |
| --- | --- | --- | --- | --- | --- | --- | --- | --- | --- | --- | --- | --- | --- | --- | --- | --- | --- | --- |
| O=C(O)CCCCCO | > 100 µM | > 100 µM | > 100 µM | > 100 µM | > 100 µM | > 100 µM | > 100 µM |  |  |  |  |  |  |  |  |  |  |  |
| COc1cc([C@@H]2c3cc4c(cc3[C@@H](NCc3ccccc3)C3COC(=O)[C@@H]32)OCO4)cc(OC)c1O (stereo not given in full) | 27.3 µM | 36.7 µM | 85.6 µM | 21.2 µM | > 100 µM | 57.5 µM |  |  |  |  |  |  |  |  |  |  |  |  |
| Cc1ccc(S(=O)(=O)SCc2ccccc2CSS(=O)(=O)c2ccc(C)cc2)cc1 | 89.5 µM | 44.2 µM | > 100 µM | 43.1 µM | 30 µM | 31.8 µM | > 100 µM |  |  |  |  |  |  |  |  |  |  |  |
| Nc1c(C(=O)c2cccc(CCC3(O)CCCC3)c2)cnn1-c1ccc(F)cc1 | > 25 µM |  |  | > 25 µM |  | > 25 µM |  | 14.2 µM | 6.52 µM | > 25 µM | 9.65 µM | > 25 µM | 9.23 µM | > 20.7 µM | > 20.9 µM | > 25 µM |  |  |
| N#CSCc1c(Cl)cccc1Cl | > 100 µM |  |  | 1.33 µM |  | > 46.3 µM |  | 3.83 µM | 13.3 µM | > 96.1 µM | 3.27 µM | > 100 µM | < 0.0506 µM | 0.76 µM | 3.43 µM | > 63.5 µM |  |  |
| C#C[C@@]1(O)[C@@H](CO)O[C@@H](n2ccc3c(N)ncnc32)[C@@H]1O | 11.8 µM |  |  | > 100 µM |  | 12.7 µM |  | 2.44 µM | 0.445 µM | 2.14 µM | 0.239 µM | 5.67 µM | 0.777 µM | 0.493 µM | 1.53 µM | 5.89 µM |  |  |
| CCCCCCCCCCCC[n+]1ccccc1 | 2.44 µM |  |  | 1.67 µM |  | 10.5 µM |  | 0.997 µM | 0.936 µM | 11.2 µM | 1.25 µM | 9.38 µM | 0.29 µM | 2 µM | 1.34 µM | 3.4 µM |  |  |
| COc1ccc2nc(NC(=O)C(=O)C(C(=O)c3ccccc3-c3ccccc3)C3OC(=O)c4ccccc43)sc2c1 (stereo not given) | 25.9 µM |  | 50.1 µM | 51.9 µM | 40.9 µM | 50.1 µM |  |  |  |  |  |  |  |  |  |  |  |  |
| Nc1nc(N)c2c(ccc3nccc32)[nH]1 | > 69.5 µM |  |  | 21.7 µM |  | > 77.3 µM |  | 3.22 µM | 14.9 µM | > 80 µM | 2.26 µM | 15.5 µM | 3.73 µM | 1.03 µM | 13.5 µM | 50 µM |  |  |
| C[C@H]1[C@H](C)CC[C@]2(C(=O)O)CC[C@]3(C)C(=CC[C@@H]4[C@@]5(C)CC[C@H](OC(=O)/C=C/c6ccc(O)cc6)C(C)(C)[C@@H]5CC[C@]43C)[C@H]12 | 17.2 µM |  |  | 48.5 µM |  | 32.4 µM |  | 6.54 µM | 13.3 µM | > 60.1 µM | 3.02 µM | 34.4 µM | 5.49 µM | 9.2 µM | 5.1 µM | 18.3 µM |  |  |
| COc1cc(Cn2ccc3c2-c2oncc2CC3)cc(OC)c1 | 69.3 µM |  |  | 50.3 µM |  | > 100 µM |  | 4.43 µM | 3.69 µM | 60.2 µM | 2.2 µM | > 100 µM | 4.98 µM | 2.18 µM | 6.58 µM | 81.4 µM |  |  |
| Cc1ccc(NC(=O)CC/C(CC(=O)c2ccc(F)cc2)=N\NC(=O)C(=O)NN)cc1C | > 100 µM | > 100 µM | > 100 µM |  | > 100 µM | > 100 µM | > 100 µM |  |  |  |  |  |  |  |  |  |  |  |
| CCN(CC)CCCOc1cc(O)c2c(=O)cc(-c3ccccc3)oc2c1 | 22.4 µM |  |  | 28.4 µM |  | 19.3 µM |  | 10.6 µM | 15.5 µM | 33.4 µM | 4.16 µM | 16.2 µM | 9.71 µM | 6.27 µM | 6.54 µM | 18.9 µM |  |  |
| N#CCN1CCOCCOCCN(CC#N)CCOCCOCC1 |  |  | > 100 µM | > 100 µM | > 100 µM | > 100 µM | > 100 µM |  |  |  |  |  |  |  |  |  |  |  |
| CCOC(=O)[C@H]1Nc2ccc(Cl)cc2[C@H]2OCC[C@@H]12 | > 100 µM | > 100 µM | > 100 µM |  | > 100 µM | > 100 µM | > 100 µM |  |  |  |  |  |  |  |  |  |  |  |
| Nc1nc(N)c(N=O)c(Nc2ccc(I)cc2)n1 | > 100 µM | 49.7 µM | 80.6 µM | > 100 µM | 21.6 µM | > 100 µM |  |  |  |  |  |  |  |  |  |  |  |  |
| CN(C)C(=O)c1cc2cnc(Nc3ccc(-c4csc5c(=O)cc(N6CCNCC6)oc45)cc3)nc2n1C1CCCC1 | 1.96 µM |  |  | 2.74 µM |  | 2.09 µM |  | 0.561 µM | 0.949 µM | 9.5 µM | 0.294 µM | 1.57 µM | 0.453 µM | 0.418 µM | 0.71 µM | 2.24 µM |  |  |
| O=C1c2ccccc2-c2n[nH]c3cccc1c23 | > 100 µM |  |  | > 100 µM |  | > 100 µM |  | 16.6 µM | 45.1 µM | > 100 µM | 21.1 µM | > 100 µM | 14.1 µM |  | 35.8 µM | > 100 µM |  |  |
| CCC[CH2][Sn]([CH2]CCC)([O]C(=O)c1cc(OC)c(OC)cc1OC)[O]C(=O)c1cc(OC)c(OC)cc1OC | 2.66 µM | 3.37 µM |  | 2.96 µM | 2.92 µM | 2.83 µM |  | 1.35 µM |  |  |  |  | 0.499 µM | 1.13 µM |  |  | 1.55 µM | 1.51 µM |
| Cc1cc2c3ccccc3ccc2[n+]2ccccc12 | 10.1 µM |  |  | 80.3 µM |  | 32.8 µM |  | 1.06 µM | 1.86 µM | 6.8 µM | 2.35 µM | > 38.8 µM | 8.7 µM | 2.99 µM | 18.5 µM | > 100 µM |  |  |
| O=C1c2cc3c(cc2[C@@H]2[C@H]1c1ccc([N+](=O)[O-])cc1C(=O)N2CCCCl)OCO3 | < 0.0128 µM |  |  | > 100 µM |  | > 100 µM |  | < 0.01 µM | > 100 µM | > 100 µM | < 0.01 µM |  | < 0.0171 µM | < 0.01 µM | < 0.0416 µM | 2.38 µM |  |  |
